Where two headings read alike, the source gives them in different places.
Tests used:
Format in all cases: cell-based, human
endogenous p21 = assay: Induction of endogenous p21 in HeLa cells, immunoblot; conditions: 13 hour treatment, immunoblot densitometry, read-out: Endogenous p2 EC50
Procedure: (§1) Induction of endogenous p21 and acetylation of core histones (inhibition of HDAC activity) was as follows. Dose-response experiments were performed in HeLa cells with different classes of known HDAC inhibitors. […] An α-tubulin-specific antibody (Sigma, St. Louis, Mo.; catalog number: T9026) was used as an internal standard. Quantitative data were obtained by densitometric analysis of X-ray films and were normalized for the internal standard values.

p21 minimal promoter = assay: Fluorometric β-lactamase activity assay in stable HeLa clone 1.17 (p21m-BLA); conditions: read-out: p21m-Bla EC50
Procedure: All clones were screened for the presence of stably and functional integrated copies of the p21m-BLA reporter gene transcription cassette by performing a fluorometric β-lactamase activity assay after treatment with the HDAC inhibitor Apicidin at a concentration of 1 μM (saturating dose representing 100% of Bla gene activation, i.e., 100% of HDAC inhibition). A 100 μL aliquot of cells for each stable transformant in complete DMEM was plated into a well of a 96 well plate at about 36,000 cells per well for treatment with 1 μM Apicidin (saturating dose) and a 100 μL aliquot of cells was plated into a well of a 96 well plate at 24,000 cells per well for treatment with DMSO (vehicle control). […] After 4 hours, 25 μL of complete DMEM containing Apicidin at 5× final concentration or DMSO (5%) was added to each of the wells. The cells were then grown at 37° C., 5% CO2 for about 12 to 16 hours. Afterwards, the medium was removed and 100 μL of DMEM without serum and 25 μL of FRET labeled CCF2-AM Bla substrate diluted in the appropriate buffer according to the manufacturer recommendations were each added to the cells to give a final concentration of 1 μM CCF2-AM.

[1] = system: HDAC activity (acetylated histone H3); assay: Acetylation of core histones (inhibition of HDAC activity) in HeLa cells, acetylated histone H3 immunoblot; conditions: Homo sapiens; HeLa cells, 13 hour treatment, immunoblot densitometry; read-out: AcH3 EC50
Procedure: as §1

## Nc1ccccc1NC(=O)c1ccc(CNC(=O)OCc2cccnc2)cc1 [MS27-275]
Endogenous p21
  EC50: 22 µM
p21 minimal promoter; clone 1.17, about 13 hours treatment, means of 3 to 4 independent experiments
  EC50: 12 µM

## O=C(CCCCCCC(=O)Nc1ccccc1)NO [SAHA, suberoylanilide hydroxamic acid]
[1]
  EC50: 0.8 µM

## CCCC(=O)[O-].[Na+] [Na-butyrate, sodium butyrate]
p21 minimal promoter; Homo sapiens, HeLa, 13 h
  EC50: 2000 µM

— patent US20080057529A1, “Method for Identifying Histone Deacetylase Inhibitors” (priority 2003, published 2008)
